According to US9938273B2 (Plexxikon Inc., priority 2015, dated 2018):

Each compound was assayed against T1, FLT3-D835Y (Homo sapiens, UniProt P36888, D835Y) (assay: AlphaScreen kinase assay with recombinant enzyme, FLT3-D835Y). Details: 8pt, GMean.
T1 construct: purchased Invitrogen PV3967
T1 sequence (P36888 27-993 D835Y): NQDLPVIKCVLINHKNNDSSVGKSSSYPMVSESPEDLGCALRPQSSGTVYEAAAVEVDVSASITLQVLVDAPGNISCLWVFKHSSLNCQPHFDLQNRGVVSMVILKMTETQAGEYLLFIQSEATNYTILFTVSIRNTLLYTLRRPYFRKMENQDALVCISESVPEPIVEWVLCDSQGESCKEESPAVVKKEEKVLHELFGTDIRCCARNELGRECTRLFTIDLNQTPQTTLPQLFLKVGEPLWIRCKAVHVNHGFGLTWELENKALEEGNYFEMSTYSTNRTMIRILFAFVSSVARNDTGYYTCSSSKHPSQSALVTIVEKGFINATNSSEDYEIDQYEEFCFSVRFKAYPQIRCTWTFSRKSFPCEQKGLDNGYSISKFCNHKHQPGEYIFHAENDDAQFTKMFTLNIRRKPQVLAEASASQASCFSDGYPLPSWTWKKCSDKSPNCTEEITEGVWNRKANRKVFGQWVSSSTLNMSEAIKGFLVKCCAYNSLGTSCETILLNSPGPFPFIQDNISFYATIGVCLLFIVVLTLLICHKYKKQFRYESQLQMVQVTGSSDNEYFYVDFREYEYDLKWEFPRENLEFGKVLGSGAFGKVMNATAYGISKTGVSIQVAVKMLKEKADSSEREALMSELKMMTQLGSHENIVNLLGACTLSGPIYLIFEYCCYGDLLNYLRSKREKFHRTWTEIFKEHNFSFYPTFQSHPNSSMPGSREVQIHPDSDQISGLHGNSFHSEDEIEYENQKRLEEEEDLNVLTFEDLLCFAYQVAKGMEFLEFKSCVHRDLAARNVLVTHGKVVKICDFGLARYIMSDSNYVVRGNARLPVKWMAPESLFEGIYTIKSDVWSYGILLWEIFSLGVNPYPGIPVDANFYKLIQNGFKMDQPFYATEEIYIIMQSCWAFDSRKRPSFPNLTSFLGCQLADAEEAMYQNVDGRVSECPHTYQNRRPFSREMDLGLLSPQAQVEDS
Type: biochemical
Method in brief: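 Inhibition was measured as a drop in AlphaScreen signal arising from phosphotyrosine-bead capture of a biotinylated poly(Glu4-Tyr) peptide (30 nM) phosphorylated by recombinant kinase. For IC50 work the stated final concentration was 10 μM for the FLT3 mutants and 100 μM for c-KIT.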

Compound | IC50 [µM]
CONC(=O)c1cccc(-c2cnc3[nH]c(-c4ccccc4)cc3c2)c1 [Compound P-0003, N-methoxy-3-(2-phenyl-1H-pyrrolo[2,3-b]pyridin-5-yl)benzamide] | 0.0001 to 10
O=S(=O)(NC1CC1)c1cccc(-c2cnc3[nH]c(C#CCO)cc3c2)c1 [Compound P-0008, N-cyclopropyl-3-[2-(3-hydroxyprop-1-ynyl)-1H-pyrrolo[2,3-b]pyridin-5-yl]benzenesulfonamide] | 0.0001 to 10
N[C@H]1CCN(C(=O)c2cccc(-c3cnc4[nH]c(-c5ccccc5)cc4c3)n2)C1 [Compound P-0015, [(3S)-3-aminopyrrolidin-1-yl]-[6-(2-phenyl-1H-pyrrolo[2,3-b]pyridin-5-yl)-2-pyridyl]methanone] | 0.0001 to 10
N[C@H]1CCN(C(=O)c2n[nH]c3ccc(-c4cnc5[nH]c(-c6ccccc6)cc5c4)cc23)C1 [Compound P-0016, [(3S)-3-aminopyrrolidin-1-yl]-[5-(2-phenyl-1H-pyrrolo[2,3-b]pyridin-5-yl)-1H-indazol-3-yl]methanone] | 0.0001 to 10
CC(C)(C)OC(=O)NC1CCN(C(=O)c2cccc(-c3cnc4[nH]c(-c5ccccc5)cc4c3)n2)CC1 [Compound P-0017, tert-butyl N-[1-[6-(2-phenyl-1H-pyrrolo[2,3-b]pyridin-5-yl)pyridine-2-carbonyl]-4-piperidyl]carbamate] | 0.0001 to 10
NC1CCC(NC(=O)c2cccc(-c3cnc4[nH]c(-c5ccccc5)cc4c3)n2)CC1 (stereo not drawn) [Compound P-0018, N-(4-aminocyclohexyl)-6-(2-phenyl-1H-pyrrolo[2,3-b]pyridin-5-yl)pyridine-2-carboxamide] | 0.0001 to 10
O=C(c1cccc(-c2cnc3[nH]c(-c4ccccc4)cc3c2)n1)N1CCC(CO)CC1 [Compound P-0023, [4-(hydroxymethyl)-1-piperidyl]-[6-(2-phenyl-1H-pyrrolo[2,3-b]pyridin-5-yl)-2-pyridyl]methanone] | 0.0001 to 10
CC1CCN(C(=O)c2n[nH]c3ccc(-c4cnc5[nH]c(-c6ccccc6)cc5c4)cc23)CC1 [Compound P-0027, (4-methyl-1-piperidyl)-[5-(2-phenyl-1H-pyrrolo[2,3-b]pyridin-5-yl)-1H-indazol-3-yl]methanone] | 0.0001 to 10
CNC1CCN(C(=O)c2n[nH]c3ccc(-c4cnc5[nH]c(-c6ccccc6)cc5c4)cc23)C1 (stereo not drawn) [Compound P-0028, [3-(methylamino)pyrrolidin-1-yl]-[5-(2-phenyl-1H-pyrrolo[2,3-b]pyridin-5-yl)-1H-indazol-3-yl]methanone] | 0.0001 to 10
CNC1CCN(C(=O)c2cccc(-c3cnc4[nH]c(-c5ccccc5)cc4c3)n2)C1 (stereo not drawn) [Compound P-0040, [3-(methylamino)pyrrolidin-1-yl]-[6-(2-phenyl-1H-pyrrolo[2,3-b]pyridin-5-yl)-2-pyridyl]methanone] | 0.0001 to 10
CNC1CN(C(=O)c2cccc(-c3cnc4[nH]c(-c5ccccc5)cc4c3)n2)C1 [Compound P-0052, [3-(methylamino)azetidin-1-yl]-[6-(2-phenyl-1H-pyrrolo[2,3-b]pyridin-5-yl)-2-pyridyl]methanone] | 0.0001 to 10
CN[C@@H]1CCN(C(=O)c2cccc(-c3cnc4[nH]c(-c5ccccc5)cc4c3)n2)C1 [Compound P-0058, [(3R)-3-(methylamino)pyrrolidin-1-yl]-[6-(2-phenyl-1H-pyrrolo[2,3-b]pyridin-5-yl)-2-pyridyl]methanone] | 0.0001 to 10
CN1CCC(NC(=O)c2cccc(-c3cnc4[nH]c(-c5ccccc5)cc4c3)n2)C1 (stereo not drawn) [Compound P-0064, N-(1-methylpyrrolidin-3-yl)-6-(2-phenyl-1H-pyrrolo[2,3-b]pyridin-5-yl)pyridine-2-carboxamide] | 0.0001 to 10

More lines, now with the values ahead:

IC50 [µM] | Compound
10 to 50 | NC(=O)Nc1ccc(-c2cnc3[nH]c(-c4ccccc4)cc3c2)cc1 [Compound P-0005, [4-(2-phenyl-1H-pyrrolo[2,3-b]pyridin-5-yl)phenyl]urea]
0.0001 to 10 | CNC(=O)Nc1ccc(-c2cnc3[nH]c(-c4ccccc4)cc3c2)cc1 [Compound P-0006, 1-methyl-3-[4-(2-phenyl-1H-pyrrolo[2,3-b]pyridin-5-yl)phenyl]urea]
0.0001 to 10 | CN(C)S(=O)(=O)Nc1cccc(-c2cnc3[nH]c(-c4ccccc4)cc3c2)c1 [Compound P-0007, 5-[3-(dimethylsulfamoylamino)phenyl]-2-phenyl-1H-pyrrolo[2,3-b]pyridine]
0.0001 to 10 | CC(C)(C)OC(=O)NC1CCN(C(=O)c2n[nH]c3ccc(-c4cnc5[nH]c(-c6ccccc6)cc5c4)cc23)CC1 [Compound P-0011, tert-butyl N-[1-[5-(2-phenyl-1H-pyrrolo[2,3-b]pyridin-5-yl)-1H-indazole-3-carbonyl]-4-piperidyl]carbamate]
0.0001 to 10 | NC1CCN(C(=O)c2n[nH]c3ccc(-c4cnc5[nH]c(-c6ccccc6)cc5c4)cc23)CC1 [Compound P-0012, (4-amino-1-piperidyl)-[5-(2-phenyl-1H-pyrrolo[2,3-b]pyridin-5-yl)-1H-indazol-3-yl]methanone]
0.0001 to 10 | NC1CCN(C(=O)c2cccc(-c3cnc4[nH]c(-c5ccccc5)cc4c3)n2)CC1 [Compound P-0013, (4-amino-1-piperidyl)-[6-(2-phenyl-1H-pyrrolo[2,3-b]pyridin-5-yl)-2-pyridyl]methanone]
50 to 100 | O=S(=O)(NC1CC1)c1cccc(-c2cnc3[nH]c(C#Cc4ccccc4)cc3c2)c1 [Compound P-0014, N-cyclopropyl-3-[2-(2-phenylethynyl)-1H-pyrrolo[2,3-b]pyridin-5-yl]benzenesulfonamide]
0.0001 to 10 | CC(=O)NC1CCN(C(=O)c2cccc(-c3cnc4[nH]c(-c5ccccc5)cc4c3)n2)CC1 [Compound P-0020, N-[1-[6-(2-phenyl-1H-pyrrolo[2,3-b]pyridin-5-yl)pyridine-2-carbonyl]-4-piperidyl]acetamide]
0.0001 to 10 | CC(=O)NC1CCN(C(=O)c2n[nH]c3ccc(-c4cnc5[nH]c(-c6ccccc6)cc5c4)cc23)CC1 [Compound P-0021, N-[1-[5-(2-phenyl-1H-pyrrolo[2,3-b]pyridin-5-yl)-1H-indazole-3-carbonyl]-4-piperidyl]acetamide]
0.0001 to 10 | CN1CCC(NC(=O)c2n[nH]c3ccc(-c4cnc5[nH]c(-c6ccccc6)cc5c4)cc23)CC1 [Compound P-0022, N-(1-methyl-4-piperidyl)-5-(2-phenyl-1H-pyrrolo[2,3-b]pyridin-5-yl)-1H-indazole-3-carboxamide]
0.0001 to 10 | CCOC(=O)C1CCN(C(=O)c2cccc(-c3cnc4[nH]c(-c5ccccc5)cc4c3)n2)CC1 [Compound P-0025, ethyl 1-[6-(2-phenyl-1H-pyrrolo[2,3-b]pyridin-5-yl)pyridine-2-carbonyl]piperidine-4-carboxylate]
0.0001 to 10 | NCC1CCN(C(=O)c2cccc(-c3cnc4[nH]c(-c5ccccc5)cc4c3)n2)CC1 [Compound P-0026, [4-(aminomethyl)-1-piperidyl]-[6-(2-phenyl-1H-pyrrolo[2,3-b]pyridin-5-yl)-2-pyridyl]methanone]
0.0001 to 10 | CNC1CCN(C(=O)c2cccc(-c3cnc4[nH]c(-c5ccc(F)cc5)cc4c3)n2)C1 (stereo not drawn) [Compound P-0055, [6-[2-(4-fluorophenyl)-1H-pyrrolo[2,3-b]pyridin-5-yl]-2-pyridyl]-[3-(methylamino)pyrrolidin-1-yl]methanone]
0.0001 to 10 | CNC1CCN(C(=O)c2cccc(-c3cnc4[nH]c(-c5ccnc(OC)c5)cc4c3)n2)C1 (stereo not drawn) [Compound P-0060, [6-[2-(2-methoxy-4-pyridyl)-1H-pyrrolo[2,3-b]pyridin-5-yl]-2-pyridyl]-[3-(methylamino)pyrrolidin-1-yl]methanone]
0.0001 to 10 | CNC1CCN(C(=O)c2cccc(-c3cnc4[nH]c(-c5cnn(CC(F)(F)F)c5)cc4c3)n2)C1 (stereo not drawn) [Compound P-0061, [3-(methylamino)pyrrolidin-1-yl]-[6-[2-[1-(2,2,2-trifluoroethyl)pyrazol-4-yl]-1H-pyrrolo[2,3-b]pyridin-5-yl]-2-pyridyl]methanone]
0.0001 to 10 | CNC1CCN(C(=O)c2cccc(-c3cnc4[nH]c(-c5cccc(C#N)c5)cc4c3)n2)C1 (stereo not drawn) [Compound P-0062, 3-[5-[6-[3-(methylamino)pyrrolidine-1-carbonyl]-2-pyridyl]-1H-pyrrolo[2,3-b]pyridin-2-yl]benzonitrile]
0.0001 to 10 | CNC1CCN(S(=O)(=O)c2cccc(-c3cnc4[nH]c(-c5ccccc5)cc4c3)n2)C1 (stereo not drawn) [Compound P-0063, N-methyl-1-[[6-(2-phenyl-1H-pyrrolo[2,3-b]pyridin-5-yl)-2-pyridyl]sulfonyl]pyrrolidin-3-amine]
